Experiments:
K562 = experiment: Antiproliferative activity against human K562 cells assessed as reduction in cell viability measured after 72 hrs; type: functional, cell-based; conditions: K562, 72 h
MOLM-13 = experiment: Antiproliferative activity against human MOLM-13 cells assessed as reduction in cell viability measured after 72 hrs; type: functional, cell-based; conditions: MOLM-13, 72 h
A2780/Taxol [1] = experiment: Antiproliferative activity against human A2780T cells assessed as reduction in cell viability measured after 72 hrs; type: functional, cell-based
A549/TR = experiment: Antiproliferative activity against paclitaxel resistant human A549T cells assessed as reduction in cell viability measured after 72 hrs; type: functional, cell-based
A2780S = experiment: Antitumor activity against human A2780S cells xenografted in mouse model assessed as tumor growth inhibition at 30 mg/kg, ip administered every two days for 12 days relative to control; type: functional; conditions: 288 h, time 12 day, read-out: TGI
A2780/Taxol [2] = experiment: Antitumor activity against human A2780T cells xenografted in mouse model assessed as tumor growth inhibition at 30 mg/kg, ip administered every two days for 18 days relative to control; type: functional; conditions: 432 h, time 18 day, read-out: TGI
MCF7 = experiment: cells; conditions: Homo sapiens, MCF7, 72 h
Description: Antiproliferative activity against human MCF7 cells assessed as reduction in cell viability measured after 72 hrs

Compound: CC(=O)O[C@H]1C(=O)[C@@]2(C)[C@H]([C@H](OC(=O)c3ccccc3)[C@]3(O)C[C@H](OC(=O)[C@H](O)[C@@H](NC(=O)c4ccccc4)c4ccccc4)C(C)=C1C3(C)C)[C@]1(OC(C)=O)CO[C@@H]1C[C@@H]2O [PACLITAXEL]
- IC50 (K562): 15 nM
- IC50 (MOLM-13): 4 nM
- IC50 (A2780/Taxol [1]): 55900 nM
- IC50 (A549/TR): 834 nM
- inhibition in vivo at 30 mg/kg (A2780S): 74.6%
- inhibition in vivo at 30 mg/kg (A2780/Taxol [2]): 23.2%
- IC50 (MCF7): 31.5 nM

Reference: ChEMBL document CHEMBL5543108, “Structure-based design and synthesis of BML284 derivatives: A novel class of colchicine-site noncovalent tubulin degradation agents” (Eur J Med Chem, 2024)
